The values below come from patent US12161630B2, “Methods to control infection using new generation small molecule growth inhibitors” (priority 2017, dated 2024).

≈ marks a conversion by molar mass, not a printed value.

The test system of data set [1] is Galleria mellonella larvae. In words: Toxicity on Galleria mellonella larva. The format is in vivo. As to conditions: over 72 HPI, single treatment with 12.5 μg per larva. As for the experimental part:
Toxicity of the selected four SMs on Galleria mellonella larva: Galleria mellonella larvae (fifth instar stage) were incubated for 12 hrs at 37° C. in the dark. After incubation, only larvae with a white phenotype and a body weight ranging between 225 mg to 275 mg were selected for the injection. Fifteen larvae per group were inoculated in one of the last pro-leg with 12.5 μg of SMs (8.5 μl) using a PB600-1 repeating dispenser (Hamilton, Reno, NV) attached to 300 μl insulin syringe, 31-gauge, 8 mm needle length (ReliOn®, Bentonville, AR). SMs were diluted into a buffer mix (30% DMSO plus 10 mM MgSO4). Larvae were placed inside a plastic petri dish and incubated for 3 days in the dark at 37° C. Every 12 hrs of interval, the larva survival was monitored. Non-treated larvae, larvae treated with the buffer mix, and larvae treated with 12.5 μg of chloramphenicol were used as control. At least two independent experiments were conducted.

A further data set has as its system S. typhimurium WT. In words: MIC and MBC dose-response, serotype Typhimurium. It is filed as cell-based, Salmonella enterica subsp. enterica serovar Typhimurium LT2. The settings on record: for MIC/MBC: Salmonella serotype Typhimurium, MIC identical to MBC. How it is done: (§1) An overnight Salmonella suspension was normalized at 0.05 OD600 (approximately 3.5×10^7 CFU/ml) with an adjusted M9 minimal broth medium (12.7 mM Na2HPO4 7H2O; 22 mM KH2PO4; 18.7 mM NH4Cl; 2 mM MgSO4; 0.1 mM CaCl2; 0.4% glucose; 0.05% casamino acids). 100 μL of the suspension plus 2 μl of SMs (200 μM) were transferred into each well of a sterile, non-treated, flat bottom 96-well plate. Bacteria alone (negative control, NC), 2% DMSO plus bacteria (DMSO control), 20 μg/ml chloramphenicol or 50 μg/ml kanamycin plus bacteria (positive controls, PC), and M9 medium only were used as control. Plates were incubated in a Sunrise™ Tecan kinetic microplate reader for 12 hrs at 37° C. and the optical density (OD) was measure at 600 nm as described above. Percentage of inhibition=(OD600 SM−OD600 NC)/(OD600 NC)×100. […] Cultures from wells showing no turbidimetric increase were transferred onto a XLT4 agar plate. Plates were incubated at 37° C. for 36 hrs.
(§2) Screens were performed as described in the primary screen. The lowest SM concentration with a static effect was considered as the minimal inhibitory concentration (MIC) and the lowest SM concentration with a cidal effect was considered as the minimal bactericidal concentration (MBC).

For another data set, the system named is Salmonella Braenderup. In words: MIC and MBC dose-response, serotype Braenderup. It is filed as cell-based, Salmonella enterica. As to conditions: MIC identical to MBC.
The test system of a further data set is Salmonella Enteritidis. In words: MIC and MBC dose-response, serotype Enteritidis. It is filed as cell-based, Salmonella enterica. As to conditions: MIC identical to MBC. How it is done: as §1, §2
The test system of the next data set is chicken cecal microbiota. In words: Cecal microbiota 16S rRNA sequencing of SM-treated infected chickens. It is filed as in vivo, broiler chickens. As to conditions: compared to DMSO group (P<0.01). How it is done:
DNA extraction and sequencing: Microbiota diversity and abundance were investigated using the second cecum directly stored in −80° C. Genomic DNA was extracted using the PureLink Microbiome DNA Purification Kit (Life Technologies, Invitrogen Corp.), combined with RNAse treatment (10 units/hour). About 0.15 g to 0.20 g of cecum content was processed according to manufacturer's instructions. After quality control with electrophoresis and nanodrop, extracted DNA samples were subjected for 16S rRNA V4-V5 variable region sequencing. As a first step of targeted sequencing, amplicon libraries were prepared by using Phusion® High-Fidelity PCR Kit (New England Biolabs Inc, Ipswich, MA) in a 96-well plate. 25 μL of PCR reactions were prepared using 5 μl (5×) of PCR buffer, 4 μl (5 ng/μl) of DNA sample, and 2.5 μl (2 μM) primer, 0.5 μl (10 mM) dNTPs, 0.2 μl of enzyme, and nuclease free water to final volume. The barcoded primers targeted the V4-V5 variable region. […] Sample concentrations were measured, and equal concentration of all samples were pooled into one flow cell and sequenced using Illumina MiSeq 300-base, paired-end kit at the Molecular and Cellular Imaging Center (Ohio Agricultural Research & Development Center, Wooster, OH).
Bioinformatics analyses: After sequencing, a quality control of the raw reads was performed using FastQC (Babraham Bioinformatics, Cambridge, USA). […] Details concerning the parameters used are described in mcbl.readthedocs.io/en/latest/mcbl-tutorials-AD-clean.html. […] Then samples were processed using Quantitative Insights Into Microbial Ecology (QIIME) software version 1.9 (16). Operational Taxonomy Units (OTUs) were determined by clustering reads against Greengenes 16S reference dataset (2013-08 release) at a 97% identity using open picking reference OTU (pick_open_reference_otus.py) method using default parameters, except setting minimum OTU size to 10. […]

Take `CCCCCCCCCCCCCCCCn1c[n+](C)c2ccccc21.[Br-]` [SM4, 1-hexadecyl-3-methyl-1H-3,1-benzimidazol-3-ium bromide]: the “lethal effect in G. mellonella larvae” value in data set [1] was “no lethal effect”. Besides, the “MIC/MBC” value with S. typhimurium WT, in the data set on Salmonella Braenderup and with Salmonella Enteritidis was 10 µM each time. Further, in the data set on chicken cecal microbiota, the “abundance of Salmonella OTUs in ceca” value is “reduced abundance”.
Regarding `CCCCCCCCCCCCCCCC[n+]1ccn(CC#N)c1.[Cl-]` [SM3, 1-(cyanomethyl)-3-hexadecyl-1H-imidazol-3-ium chloride], the “lethal effect in G. mellonella larvae” value in data set [1] was “killed only a few larvae”. The “MIC/MBC” value with S. typhimurium WT, against Salmonella Braenderup and in the data set with Salmonella Enteritidis was 25 µM each time.
With `CC1CCC(C(C)C)C(OC(=O)Cn2c[n+](CC(=O)OC3CC(C)CCC3C(C)C)c3ccccc32)C1.[Cl-]` (centres unmarked) [SM1, 1,3-bis{2-[(2-isopropyl-5-methylcyclohexyl)oxy]-2-oxoethyl}-1H-3,1-benzimidazol-3-ium chloride], in data set [1], the “lethal effect in G. mellonella larvae” value is “chronic death of the larvae over time”. The “MIC/MBC” value in the data set on S. typhimurium WT came to 50 µM; in the data set on Salmonella Braenderup, 100 µM; against Salmonella Enteritidis, 100 µM. Besides, the “abundance of Salmonella OTUs in ceca” value in the data set on chicken cecal microbiota was “reduction”.
For the compound `CCOc1cc(/C=N/N=C(N)N)ccc1OCc1ccc(Cl)cc1` [SM5, N″-{4-[(4-chlorobenzyl)oxy]-3-ethoxybenzylidene}carbonohydrazonic diamide], the “lethal effect in G. mellonella larvae” value in data set [1] is “killed only a few larvae”. In addition, the MBC with S. typhimurium WT (Salmonella enterica, TYPHIMURIUM, read-out: MBCAlone of SM) was found to be 25 µM (≈ 8.67 µg/mL). Further, the figures for the “MIC/MBC” value against S. typhimurium WT, in the data set with Salmonella Braenderup and in the data set with Salmonella Enteritidis were 25 µM (≈ 8.67 µg/mL), 50 µM (≈ 17.3 µg/mL) and 50 µM (≈ 17.3 µg/mL), respectively. Further, in the data set on chicken cecal microbiota, the “abundance of Salmonella OTUs in ceca” value is listed as “reduced abundance”.
